Results taken from US11642352B2, “Methods of treating wandering in Lewy dody dementia” (WOOLSEY PHARMACEUTICALS, INC., priority 2020, dated 2023).
Where a name gives a salt, the structure may show the parent alone. Read-outs that look alike come from different tables or passages of the source.

Legend:
[1] = in vivo, metabolite of fasudil; cited from earlier work
humans (AD) = details: cited from earlier work
[2] = system: patients with Alzheimer's Dementia (AD) and frontotemporal dementia (FTD); experiment: clinical trial of oral fasudil on frequency of wandering (Example 1); format: in vivo, human
Description: Twenty patients, 10 with AD and 10 with FTD and an MMSE score ≤23, who are characterized wanderers, are enrolled into the study and observed for 2 weeks to confirm wandering behavior. […] The double-blind phase is followed by another treatment period of 6 weeks with the opposite treatment assignment (placebo or test drug taken with food).
The following inclusion criteria are applied:
1. Patients 50 years to 90 years of age.
2. Diagnosis of dementia (AD or VaD or mixed type) for at least 6 months.
3. For entering observation period and for entering open label treatment period: Wanders:
• a. Walks distinctly more than average as others of same age and ability AND/OR • b. Elopement behavior ≥3×per week in the opinion of the investigator For entering first double-blind treatment period: Wanders: • a. Walks less than half the mean distance measured in observation period AND/OR • b. Elopement behavior <1× per week in the opinion of the investigator AND/OR • c. Wandering has improved in the opinion of the Investigator. 4. For entering observation period and for entering open label treatment period: • a. MMSE between 10 and 25.
Wandering is measured in term of time in motion and distance traveled (measures of persistent wandering), attempted and successful boundary transgressions (measures of elopement) and patterns like pacing a lapping (indicative of persistent wandering and/or agitation or anxiety) using an electronic tracking device. A typical tracking device would use a combination of accelerometry with positioning, using technology like RFID or Bluetooth in an indoor environment and GPS outdoors. Other wayfinding, orientation and memory-associated wandering incidents are observed and recorded manually.
Wandering is measured in term of time in motion and attempted successful boundary transgression using an electronic tracking device. Other wayfinding, orientation and memory-associated wandering incidents are observed and recorded manually.
The Mini Mental State Exam (MMSE), Woolsey Wandering Questionnaire and Revised Algase Wandering Scale are administered at baseline and at the end of each treatment period. Any change in the use of antipsychotics or anxiolytics that could affect movement during the study is strongly discouraged.

streptozotocin rats = details: intraperitoneally; cited from earlier work
triple transgenic mice = details: 10 or 12 months of age, administered in water at 30 mg/kg and 100 mg/kg; cited from earlier work
APP/PS1 transgenic mice = details: 5 and 10 mg/kg/day intraperitoneally; cited from earlier work
[3] = system: patients with wandering due to VaD; details: cited from earlier work
[4] = system: triple transgenic mouse model (APP Swedish, MAPT P301L, and PSEN1 M146V); details: 10 mg/kg/day intraperitoneally; cited from earlier work
[5] = on drug as compared to placebo, 90 mg/day (30 mg TID)

O=S(=O)(c1cccc2c(O)nccc12)N1CCCNCC1 [M3]
half-life [1]: about 8 hours

O=c1ncn2nc(Sc3ccc(F)cc3F)ccc2c1-c1c(Cl)cccc1Cl [Neflamapimod]
primary endpoint of improving episodic memory (humans (AD); Phase 2): failed
tau in the cerebrospinal fluid (humans (AD); Phase 2): reducing tau
Aβ deposition (humans (AD); humans): no effect

O=S(=O)(c1cccc2cnccc12)N1CCCNCC1 [fasudil, Hexahydro-1-(5-isoquinolinesulfonyl)-1H-1,4-diazepine monohydrochloride hemihydrate]
wandering ([2]; 90 mg/day (30 mg TID) oral, 6 weeks, AD and FTD patients): significant reduction in wandering
mean increase in MMSE score, persistent wanderers [2, 5]: greater than 3 points
reduction of activity levels in persistent wanderers [2, 5]: about 50%
wayfinding errors and other problematic behaviors in sporadic wanderers ([2]; while on drug, 90 mg/day (30 mg TID)): significant reduction
latency distance and quadrant time in the Morris water maze (streptozotocin rats): improved
spatial memory (triple transgenic mice): did not observe improvements
latency distance and quadrant time in the Morris water maze (APP/PS1 transgenic mice): improved
wandering symptoms ([3]; patient with Binswanger-type cerebral infarction, within weeks of beginning treatment): wandering symptoms disappeared
wandering symptoms ([3]; patient with sequelae of cerebral bleeding and multiple lacunar infarctions): Wandering symptoms disappeared quickly
ß-amyloid plaques in vivo [4]: reduce ß-amyloid plaques
